Values after ≈ are worked out from the molar mass of the structure shown.

The source of these data is patent publication US7807663B2, “Therapeutic agents for diabetes” (Ajinomoto Co., Inc., priority 2003, dated 2010).

The subject of one assay is adipose cells of rats. Nature of the assay: Evaluation of the sugar transportation activity (2-[14C(U)]-deoxy-D-glucose incorporation). In kind it is cell-based, Wistar rats. To be noted: concentration with reinforcing effect of 50% of that of insulin (100 nM) = 100%; rat adipose cells, 30 min pre-culture at 37° C., 5 min uptake. The essentials: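 Collagenase-isolated epididymal adipocytes from male Wistar rats in 2% BSA/KRH (pH 7.6) preincubated with compound 30 min at 37 °C, then pulsed with 2-[14C(U)]-deoxy-D-glucose (0.5 μCi/sample) 5 min; uptake stopped with 10 μM cytochalasin B, cells separated through dinonyl phthalate and counted by scintillation. EC50 (μg/mL) = concentration giving 50% of the 100 nM insulin effect.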

A further assay deals with C57BL/6NCrj mice. Nature of the assay: Combinational effect with insulin secretagogue (gliclazide) using normal mice (Example 1). In kind it is in vivo. To be noted: compound 100 mg/kg oral combined with gliclazide 3 mg/kg oral, compared with alone groups. As for the experimental part:
FIG. 1 is a chart showing a combinational effect of the compound (II) and gliclazide in Example 1 (average value±standard deviation, each group N=4).
The compound (II) of the Compound No. 96 in above Table 1, which is indicated by the following structural formula, was used for the investigation. The compound is that described as Example 129 in WO02/44180 and synthesized in accordance with the method described in the international publication.
(§1) The compound (II) (100 mg/kg) was orally administered to C57BL/6NCrj mice (11 week age, male) and soon after that, gliclazide (3 mg/kg) was orally administered. After administration, the blood was taken from their caudal veins over time to determine the blood glucose level. Area under the curve of blood glucose level changes until 70 minutes after the administration was set as an index and variations from a control group (Vehicle administered group) were compared.

The next assay concerns KK-Ay mice. Nature of the assay: Combinational effect with biguanide (metformin) using KK-Ay mice (Example 4). In kind it is in vivo. The following applies: combined with metformin, compared with alone groups, same experiment as Example 3. As for the experimental part: (§2) The compound (III) (30 mg/kg) was orally administered to C57BL/KsJ-db/bdJcl mice (10 week age, male) and soon after that, metformin (100 mg/kg) was orally administered. 60 minutes after administration, the blood was taken from their caudal veins to determine the blood glucose level.
The same experiment is conducted as that of Example 3 except that the compounds of the Compound Nos. 6, 8, 62, 80, 81, 88, 91, 96, 105, 106, 129, 130, 131 and 132 in Tables 1 and 2 are used instead of the compound (III), and KK-Ay mice are used instead of db/bd mice.

Assay [1] deals with C57BL/KsJ-db/bdJcl mice. Put plainly: Combinational effect with glitazone (pioglitazone) using db/db mice, oral glucose load (Examples 5 and 6). In kind it is in vivo. To be noted: single oral administration combined with pioglitazone 10 mg/kg/day oral for 10 days, compared with alone groups. As for the experimental part:
The oral glucose load experiments are conducted using C57BL/KsJ-db/bdJcl mice in the conditions with or without the oral administeration of pioglitazone (10 mg/kg/day) for 10 days and with or without a single oral administration of the compound (III).
The same experiment is conducted as that of Example 5 except that the compounds of the Compound Nos. 6, 8, 62, 80, 81, 88, 91, 96, 105, 106, 129, 130, 131 and 132 in Tables 1 and 2 are used instead of the compound (III).

In assay [2] the test system is C57BL/KsJ-db/bdJcl mice. Nature of the assay: Combinational effect with insulin using db/db mice (Examples 7 and 8). In kind it is in vivo. The following applies: combined with insulin 0.2 U/kg, compared with alone groups, same experiment as Example 3. How it is done:
The compound (III) (30 mg/kg) was orally administered to C57BL/KsJ-db/bdJcl mice (10 week age, male) and soon after that, metformin (100 mg/kg) was orally administered. 60 minutes after administration, the blood was taken from their caudal veins to determine the blood glucose level. The same experiment is conducted as that of Example 3 except that insulin (0.2 U/kg) is used instead of metformin. […] The same experiment is conducted as that of Example 7 except that the compounds of the Compound Nos. 6, 8, 62, 80, 81, 88, 91, 96, 105, 106, 129, 130, 131 and 132 in Tables 1 and 2 are used instead of the compound (III).

In the next assay the test system is GK rats. Put plainly: Combinational effect with insulin secretagogue (gliclazide) using GK rats (Example 2). In kind it is in vivo. To be noted: combined with gliclazide, compared with alone groups, same experiment as Example 1. How it is done:
as §1
The same experiment is conducted as that of Example 1 except that the compounds of the Compound Nos. 6, 8, 62, 80, 81, 88, 91, […], 105, 106, 129, 130, 131 and 132 in Tables 1 and 2 are used instead of the compound (II), and GK rats are used instead of normal mice.

In assay [3] the test system is C57BL/KsJ-db/bdJcl mice. Put plainly: Combinational effect with biguanide (metformin) using db/db mice (Example 3). The following applies: compound 30 mg/kg oral combined with metformin 100 mg/kg oral, compared with alone groups. In kind it is in vivo. How it is done:
FIG. 2 is a chart showing a combinational effect of the compound (III) and metformin in Example 3 (average value+standard deviation, each group N=6).
The compound (III) of the Compound No. 98 in above Table 1, which is indicated by the following structural formula, was used for the investigation. The compound is that described as Example 131 in WO02/44180 and synthesized in accordance with the method described in the international publication.
as §2

In turn, `CCOCC(=O)N1[C@@H]2CCCC[C@H]2NC2=C(C(=O)NC2)[C@H]1c1ccccc1CC` [Compound 96] registered an EC50 in the assay with adipose cells of rats of 5.4 µg/mL (≈ 13.6 µM). The “hypoglycemic action (area under the curve of blood glucose level changes until 70 minutes, variation from vehicle group)” value in the assay with C57BL/6NCrj mice is reported as “remarkable hypoglycemic action”. In addition, the “hypoglycemic action (blood glucose level)” value with KK-Ay mice and in the assay with C57BL/KsJ-db/bdJcl mice [2] was “remarkable hypoglycemic action” throughout. The “hypoglycemic action (oral glucose load)” value with C57BL/KsJ-db/bdJcl mice [1] is given as “remarkable hypoglycemic action”.
As to `CCc1ccccc1[C@@H]1C2=C(CNC2=O)N[C@@H]2CCCC[C@H]2N1C(C)=O` [Compound 98], it took 4 µg/mL (≈ 11.3 µM) to reach a half-maximal effect with adipose cells of rats (EC50). Also, the “hypoglycemic action (blood glucose level)” value in the assay on GK rats and with C57BL/KsJ-db/bdJcl mice [2] was “remarkable hypoglycemic action” throughout. Also, the “hypoglycemic action (blood glucose level 60 minutes after administration)” value in the assay with C57BL/KsJ-db/bdJcl mice [3] is on record as “remarkable hypoglycemic action”. For the same compound, the “hypoglycemic action (oral glucose load)” value in the assay with C57BL/KsJ-db/bdJcl mice [1] is recorded as “remarkable hypoglycemic action”.
`CCC(=O)N1[C@@H]2CCCC[C@H]2NC2=C(C(=O)NC2)[C@H]1c1cccc(F)c1C` [Compound 106]: the “A: sugar transportation activity (EC50)” value with adipose cells of rats amounted to 0.6 µg/mL. In addition, the “hypoglycemic action (blood glucose level)” value with GK rats, with KK-Ay mice and in the assay on C57BL/KsJ-db/bdJcl mice [2] was “remarkable hypoglycemic action” each time. In addition, the “hypoglycemic action (oral glucose load)” value with C57BL/KsJ-db/bdJcl mice [1] is reported as “remarkable hypoglycemic action”.
In the case of `CCC(=O)N1[C@@H]2CCCC[C@H]2NC2=C(C(=O)NC2)[C@H]1c1ccccc1` [Compound 130], the “A: sugar transportation activity (EC50)” value with adipose cells of rats was 1.5 µg/mL. The “hypoglycemic action (blood glucose level)” value in the assay on GK rats, with KK-Ay mice and in the assay on C57BL/KsJ-db/bdJcl mice [2] was “remarkable hypoglycemic action” in each case. Besides, the “hypoglycemic action (oral glucose load)” value in the assay on C57BL/KsJ-db/bdJcl mice [1] is given as “remarkable hypoglycemic action”.
`O=C1NCC2=C1[C@@H](c1ccccc1)N(C(=O)CO)[C@@H]1CCCC[C@H]1N2` [Compound 131]: in the assay with adipose cells of rats, the “A: sugar transportation activity (EC50)” value was 1.5 µg/mL. Moreover, the “hypoglycemic action (blood glucose level)” value with GK rats, in the assay on KK-Ay mice and in the assay with C57BL/KsJ-db/bdJcl mice [2] was “remarkable hypoglycemic action” in each case. Besides, the “hypoglycemic action (oral glucose load)” value in the assay with C57BL/KsJ-db/bdJcl mice [1] is “remarkable hypoglycemic action”.
In the case of `CCOCC(=O)N1[C@@H]2CCCC[C@H]2NC2=C(C(=O)NC2)[C@H]1c1ccccc1` [Compound 132], in the assay on adipose cells of rats, the “A: sugar transportation activity (EC50)” value was found to be 2.7 µg/mL. The “hypoglycemic action (blood glucose level)” value with GK rats, with KK-Ay mice and with C57BL/KsJ-db/bdJcl mice [2] was “remarkable hypoglycemic action” throughout. In addition, the “hypoglycemic action (oral glucose load)” value in the assay with C57BL/KsJ-db/bdJcl mice [1] was “remarkable hypoglycemic action”.
